Converted amounts (≈) assume the structure as drawn.

The test system of one data set is HIV-1 (IIIB). The data set can be described thus: microbe, parasite or virus in culture. To be noted: Human immunodeficiency virus 1, MT4, 120 h; HIV-1 (IIIB) replication in MT-4 cells, 5 days, Cell Titer Glo; read-out: MT4 EC50. The format is cell-based.
A further data set is described as follows: in vitro. Conditions: human, uninfected MT-4 cells.
A further data set can be described thus: physchem. Conditions: FaSSIF, 23 °C, thermodynamic from solid.

What is called EC50 is the concentration needed to bring the measured effect to its halfway point. A word on the CC50: it is the concentration at which the toxic effect on the cells reaches its halfway point. As usually defined, the solubility (thermodynamic) is the concentration in solution at equilibrium with solid. With `CC[C@@H](COC(=O)OCOc1c2n(cc(C(=O)NCc3ccc(F)cc3F)c1=O)[C@@H]1CN(C2=O)[C@@H](C)CC[C@]12CC(OC)=NO2)OP(=O)(O)O` [Compound 67, (((3′S,5S,7′R)-10′-((2,4-difluorobenzyl)carbamoyl)-3-methoxy-3′-methyl-1′,11′-dioxo-1′,4′,5′,11′-tetrahydro-3′H,4H,7′H-spiro[isoxazole-5,6′-[2,7]methanopyrido[1,2-a][1,4]diazonin]-12′-yl)oxy)methyl ((S)-2-(phosphonooxy)butyl) carbonate], the EC50 in the data set on HIV-1 (IIIB) worked out at 0.00241 µM. Besides, in “in vitro”, the CC50 at 5 days was determined as 14.4 µM. The solubility (thermodynamic) at 24 h in the data set “physchem” stood at 5.19 mg/mL (≈ 7.12 mM).
The corresponding values for `CC1=NO[C@@]2(CC[C@H](C)N3C[C@H]2n2cc(C(=O)NCc4ccc(F)cc4F)c(=O)c(OCOC(=O)OC[C@H](C)OP(=O)(O)O)c2C3=O)C1` [Compound 17, (((3′S,5S,7′R)-10′-((2,4-difluorobenzyl)carbamoyl)-3,3′-dimethyl-1′,11′-dioxo-1′,4′,5′,11′-tetrahydro-3′H,4H,7′H-spiro[isoxazole-5,6′-[2,7]methanopyrido[1,2-a][1,4]diazonin]-12′-yl)oxy)methyl ((S)-2-(phosphonooxy)propyl) carbonate] are 0.00205 µM, 13.7 µM and 4.59 mg/mL (≈ 6.57 mM).
The corresponding values for `COC1=NO[C@@]2(CC[C@H](C)N3C[C@H]2n2cc(C(=O)NCc4ccc(F)cc4F)c(=O)c(OCOC(=O)OCCN(CC(=O)O)C(=O)OCOP(=O)(O)O)c2C3=O)C1` [Compound 8, N-(2-((((((3′S,5S,7′R)-10′-((2,4-difluorobenzyl)carbamoyl)-3-methoxy-3′-methyl-1′,11′-dioxo-1′,4′,5′,11′-tetrahydro-3′H,4H,7′H-spiro[isoxazole-5,6′-[2,7]methanopyrido[1,2-a][1,4]diazonin]-12′-yl)oxy)methoxy)carbonyl)oxy)ethyl)-N-(((phosphonooxy)methoxy)carbonyl)glycine] are 0.00204 µM, 17.8 µM and 3.02 mg/mL (≈ 3.63 mM).
Consider `CC1=NO[C@@]2(CC[C@H](C)N3C[C@H]2n2cc(C(=O)NCc4ccc(F)cc4F)c(=O)c(OCOC(=O)N(C)CCN(CC(=O)O)C(=O)OCOP(=O)(O)O)c2C3=O)C1` [Compound 21, N-(2-((((((3′S,5S,7′R)-10′-((2,4-difluorobenzyl)carbamoyl)-3,3′-dimethyl-1′,11′-dioxo-1′,4′,5′,11′-tetrahydro-3′H,4H,7′H-spiro[isoxazole-5,6′-[2,7]methanopyrido[1,2-a][1,4]diazonin]-12′-yl)oxy)methoxy)carbonyl)(methyl)amino)ethyl)-N-(((phosphonooxy)methoxy)carbonyl)glycine], for which the EC50 in the data set on HIV-1 (IIIB) is 0.0015 µM. This molecule registered a CC50 at 5 days in the data set “in vitro” of 15.2 µM. Moreover, the solubility (thermodynamic) at 24 h in “physchem” worked out at 5.04 mg/mL (≈ 6.08 mM).
Regarding `COC1=NO[C@@]2(CC[C@H](C)N3C[C@H]2n2cc(C(=O)NCc4ccc(F)cc4F)c(=O)c(OCOC(=O)OC[C@H](C)OP(=O)(O)O)c2C3=O)C1` [Compound 23, (((3′S,5S,7′R)-10′-((2,4-difluorobenzyl)carbamoyl)-3-methoxy-3′-methyl-1′,11′-dioxo-1′,4′,5′,11′-tetrahydro-3′H,4H,7′H-spiro[isoxazole-5,6′-[2,7]methanopyrido[1,2-a][1,4]diazonin]-12′-yl)oxy)methyl ((S)-2-(phosphonooxy)propyl) carbonate], the EC50 with HIV-1 (IIIB) is 0.00233 µM. In “in vitro”, half-maximal cytotoxicity (CC50 at 5 days) was put at 14.8 µM. Moreover, the solubility (thermodynamic) at 24 h in the data set “physchem” came out at 4.4 mg/mL (≈ 6.16 mM).
For `CC1=NO[C@@]2(CC[C@H](C)N3C[C@H]2n2cc(C(=O)NCc4ccc(F)cc4F)c(=O)c(OC(=O)OCC(C)(C)COP(=O)(O)O)c2C3=O)C1` [Compound 13, (3′S,5S,7′R)-10′-((2,4-difluorobenzyl)carbamoyl)-3,3′-dimethyl-1′,11′-dioxo-1′,4′,5′,11′-tetrahydro-3′H,4H,7′H-spiro[isoxazole-5,6′-[2,7]methanopyrido[1,2-a][1,4]diazonin]-12′-yl (2,2-dimethyl-3-(phosphonooxy)propyl) carbonate] the same measures were 0.00198 µM, 14 µM and 4.38 mg/mL (≈ 6.29 mM).
The corresponding values for `CC[C@@H](COP(=O)(O)O)OC(=O)OCOc1c2n(cc(C(=O)NCc3ccc(F)cc3F)c1=O)[C@@H]1CN(C2=O)[C@@H](C)CC[C@]12CC(C)=NO2` [Compound 26, (((3′S,5S,7′R)-10′-((2,4-difluorobenzyl)carbamoyl)-3,3′-dimethyl-1′,11′-dioxo-1′,4′,5′,11′-tetrahydro-3′H,4H,7′H-spiro[isoxazole-5,6′-[2,7]methanopyrido[1,2-a][1,4]diazonin]-12′-yl)oxy)methyl ((S)-1-(phosphonooxy)butan-2-yl) carbonate] are 0.00271 µM, 13.5 µM and 4.76 mg/mL (≈ 6.69 mM).
For `CC1=NO[C@@]2(CC[C@H](C)N3C[C@H]2n2cc(C(=O)NCc4ccc(F)cc4F)c(=O)c(OCOC(=O)O[C@@H](C)[C@@H](C)OP(=O)(O)O)c2C3=O)C1` [Compound 57, (((3′S,5S,7′R)-10′-((2,4-difluorobenzyl)carbamoyl)-3,3′-dimethyl-1′,11′-dioxo-1′,4′,5′,11′-tetrahydro-3′H,4H,7′H-spiro[isoxazole-5,6′-[2,7]methanopyrido[1,2-a][1,4]diazonin]-12′-yl)oxy)methyl ((2S,3R)-3-(phosphonooxy)butan-2-yl) carbonate] the same measures were 0.00232 µM, 19.9 µM and 4.63 mg/mL (≈ 6.5 mM).
`CC1=NO[C@@]2(CC[C@H](C)N3C[C@H]2n2cc(C(=O)NCc4ccc(F)cc4F)c(=O)c(OCOC(=O)CC(C)(C)CN(CC(=O)O)C(=O)OCOP(=O)(O)O)c2C3=O)C1` [Compound 42, N-(4-((((3′S,5S,7′R)-10′-((2,4-difluorobenzyl)carbamoyl)-3,3′-dimethyl-1′,11′-dioxo-1′,4′,5′,11′-tetrahydro-3′H,4H,7′H-spiro[isoxazole-5,6′-[2,7]methanopyrido[1,2-a][1,4]diazonin]-12′-yl)oxy)methoxy)-2,2-dimethyl-4-oxobutyl)-N-(((phosphonooxy)methoxy)carbonyl)glycine]: the concentration for a half-maximal effect (EC50) in the data set with HIV-1 (IIIB) was found to be 0.00106 µM. The molecule also registered a CC50 at 5 days in “in vitro” of 10.3 µM. The molecule further came in with a thermodynamic solubility at 24 h in the data set “physchem” of 5.08 mg/mL (≈ 6.04 mM).
Regarding `CC1=NO[C@@]2(CC[C@H](C)N3C[C@H]2n2cc(C(=O)NCc4ccc(F)cc4F)c(=O)c(OCOC(=O)OC[C@@H](C)OP(=O)(O)O)c2C3=O)C1` [Compound 22, (((3′S,5S,7′R)-10′-((2,4-difluorobenzyl)carbamoyl)-3,3′-dimethyl-1′,11′-dioxo-1′,4′,5′,11′-tetrahydro-3′H,4H,7′H-spiro[isoxazole-5,6′-[2,7]methanopyrido[1,2-a][1,4]diazonin]-12′-yl)oxy)methyl ((R)-2-(phosphonooxy)propyl) carbonate], the concentration for a half-maximal effect (EC50) with HIV-1 (IIIB) was found to be 0.00193 µM. This molecule yielded a half-maximal cytotoxic concentration (CC50) at 5 days in the data set “in vitro” of 9.78 µM. In “physchem”, this molecule yielded a thermodynamic solubility at 24 h of 4.19 mg/mL (≈ 5.99 mM).

(Values after US20250120989A1, “BRIDGED TRICYCLIC CARBAMOYLPYRIDONE COMPOUNDS AND USES THEREOF” (priority 2023, published 2025).)
